The series can be described thus: gradient 5% acetonitrile 3 min, to 50% in 2 min, to 85% in 15 min, held 3 min, 100 µL/min. The conditions noted are these: column: Zorbax Extend-C18 2.1 x 50 mm; eluents: water / acetonitrile, 0.1% formic acid. The essentials: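 Mixtures of ~100 pure standards were chromatographed on a Zorbax Extend-C18 column (2.1 × 50 mm, 1.8 μm) at 100 μL/min using water and acetonitrile, each with 0.1% formic acid. Detection used a quadrupole time-of-flight mass spectrometer in positive and negative ionization mode, and data collection spanned 3 months. Retention time was obtained from adduct peaks picked computationally and each checked manually.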
With `O=C(Nc1ccc(Cn2cncn2)cc1)c1ccoc1`, the RP-LC retention time came out at 621 s.
As to `CCCN1C(=O)COc2ccc(-c3csc(NC(=O)C4CCCCC4)n3)cc21`, the RP-LC retention time was 1100 s.
On to `CCCn1cc(CCNC(=O)Nc2ccc(Br)c(C)c2)c2cccnc21`, for which the RP-LC retention time was determined as 902 s.
With `CC(=O)c1cccc(NC2=NS(=O)(=O)C(c3cccc(Cl)c3)=C2C)c1`, the RP-LC retention time amounted to 902 s.
Then `O=C(Cc1ccc(Cl)s1)Nc1nnc(-c2cc3ccccc3o2)o1`, with 843 s; and `Cc1ccc(NC(=O)Cn2c(=O)c3cc(-c4cccs4)nn3c3ncccc32)cc1F`, with 924 s.
In turn, `CCc1nn2c(CNC(=O)c3cc(Cl)ccc3OC)c(C)nc2s1` had an RP-LC retention time of 659 s.
Compound `Cc1cnc(C(=O)N2CCCC2c2nc(CCOCC3CCCC3)no2)cn1` (stereo not given) came in with an RP-LC retention time of 903 s.
`O=S(=O)(c1cc(-c2nnc(C3CCC3)o2)co1)N1CCN(c2cccc(Cl)c2)CC1`: the RP-LC retention time stood at 1120 s.
As for `Cc1noc(C)c1CC(=O)N1C[C@H]2C[C@H](C1)[C@H]1CCCC(=O)N1C2`, the figure is 599 s; as for `COCCN1C(=O)c2ccccc2C(C(=O)NCCCc2ccccc2)C12CCCC2` (stereo not given), 944 s.
`O=C(CCCc1nc2ccccc2s1)N1CCC(CCOc2ccccc2)C1` (stereo not given) displayed an RP-LC retention time of 1050 s.
Compound `Cc1cc(C2CCCN2C(=O)Cc2c(F)cccc2Cl)no1` (stereo not given) yielded an RP-LC retention time of 829 s.
Then `O=C(CN1C(=O)C2CCCCN2c2ccc(C(=O)N3CCCC3)cc21)NC1CCCCC1` (stereo not given), with 814 s.
Then `Oc1cc2c(cc1O)[C@H]1c3ccccc3CN[C@@H]1CC2`, with 628 s; and `COC[C@@H]1OCCN(S(=O)(=O)c2cccc(F)c2)[C@H]1c1ccccc1`, with 928 s; and `CCc1nnc(-c2ccc3ccn(CC(=O)NCc4cc(OC)ccc4OC)c3c2)o1`, with 793 s.
Then `CN(C(=O)Cn1nc(Cc2cccnc2)c2ccccc2c1=O)C1CCCCC1`, with 640 s.
On to `O=C(CCSc1ccccc1)N1CC(c2nc(-c3cccc(Cl)c3)no2)C1`, for which the RP-LC retention time stood at 1020 s.
Then `CN1C(=O)c2ccccc2Oc2ccc(C(=O)NCc3ccccc3Cl)cc21`, with 948 s.

Source of the values: the METLIN SMRT retention time set (Domingo-Almenara et al. 2019).
